{"source": "patent US10350309B2", "about": "“Methods of preparing ophthalmic formulations and uses of same” (Cognoptix, Inc., priority 2013, dated 2019)", "key": {"[1]": {"test": "Microscopic examination of mixture after ball milling agitation (particle size, uniformity)", "format": "physicochemical", "details": "heavy mineral oil, ball milling with 5 mm grinding media beads", "experimental": "Microscopic examination of mixtures after ball milling can be used to assess uniformity and to estimate the particle size of the fluorescent molecular rotor compounds. Microscopic examination of the mixtures containing Compound 11 were performed using a compound optical microscope with a calibrated eyepiece micrometer, or reticle. For example, the eyepiece micrometer, reticle, can be aligned and calibrated with the stage micrometer by aligning the zero line of the reticle with the zero line of the stage micrometer, and the ratios between the micrometers or scales can be used to determine sizes and distances."}, "[2]": {"test": "HPLC analysis of concentration and degradation of Compound 11 in mineral oil mixtures after ball milling agitation", "format": "physicochemical", "experimental": "The following HPLC method was used to analyze whether the concentration of fluorescent molecular rotor compounds in mixtures of mineral oil and Compound 11 was consistent with the expected concentration of the mixture. The HPLC analysis was also used to evaluate degradation of Compound 11 in the mixture. The HPLC instrument used was a Waters 2695 Separation Module, or equivalent containing a pump capable of delivering a gradient flow rate of 1.0 mL/min or equivalent and a Waters 2487 Multiwavelength Detector, or dual wavelength detector capable of detection at 215 nm and 320 nm, or equivalent. The column used was a Waters Deltapak C18 column, 5 μm, 3.9×150 mm, (Waters Corp., Milford, Mass., Catalog No.: WAT011793). The flow rate was 1.0 mL/min with detection at a wavelength of 215 nm and a column temperature of 25° C. The injection volume used for the concentration sample evaluation was 20 μL and for the related substances sample evaluation was 50 μL. The mobile phases were A: 0.1% trifluoroacetic acid in water, C: methanol, and D: ethanol, and the gradient program shown in Table 2 was used for the HPLC method.\nIn a mixture sample compared to a standard sample, increased relative peak area of the related substance peak (RT of 3.8 min, Table 3) compared to the peak area of Compound 11 (RT of 8.5 min, Table 3) would indicate degradation of Compound 11. The concentration in the mixture sample of Compound 11 was determined by analyzing the HPLC peak with a retention time of 8.5 min (Table 3) compared to a standard sample of Compound 11.\nHowever, the concentration of the mixture of Compound 11 and heavy mineral oil after ball milling agitation with YTZ® grinding media beads of an average diameter of 0.5 mm was determined by HPLC (RT of 8.5 min, Table 3) to be 4.75 mg/g as compared to an expected concentration of 48.12 mg/g (504.3 mg/10.48 g, mineral oil and Compound 11). […] The concentration as measured by HPLC of the mixture of Compound 11 and heavy mineral oil after ball milling agitation with beads of an average diameter of 5 mm was 44.9 mg/g as compared to an expected concentration of 47.98 mg/g (504.8 mg/10.52 g, mineral oil and Compound 11), which was within the acceptable range."}}}
{"molecule": "COCCOCCOCCOC(=O)/C(C#N)=C/c1ccc2cc(N3CCCCC3)ccc2c1", "note": "[Compound 11]", "values": [{"measurement": "particle diameter by microscopic examination", "setting": "[1]", "value": "approximately 5 microns"}, {"measurement": "concentration of the mixture determined by HPLC", "setting": "[2]; heavy mineral oil, ball milling with YTZ beads of average diameter 0.5 mm, expected 48.12 mg/g", "value": 4.75, "unit": "mg/g"}, {"measurement": "concentration of the mixture measured by HPLC", "setting": "[2]; heavy mineral oil, ball milling with beads of average diameter 5 mm, expected 47.98 mg/g", "value": 44.9, "unit": "mg/g"}, {"measurement": "degradation of Compound 11 based on changes in the related substance peak (RT 3.8 min)", "setting": "[2]; mixture in heavy mineral oil, after ball milling agitation, HPLC", "value": "no significant degradation"}, {"measurement": "degradation of Compound 11 as analyzed by HPLC", "setting": "[2]; mixture in heavy mineral oil, ball milling agitation with YTZ 5 mm beads", "value": "without degradation"}]}
